From ChEMBL document CHEMBL5385918, “Aculeatiols A-G: Lovastatin Derivatives Extracted from Aspergillus aculeatus” (2024)
The source made the active and inactive calls. No cut-off for these calls is given here.

Columns and labels:
HepG2 [1] = experiment: Upregulation of PPARalpha mRNA expression in FFA-induced human HepG2 cells at 5 to 10 uM pretreated with compound for 24 hrs followed by FFA-induction and measured after 24 hrs by qRT-PCR analysis; assay type: functional, cell-based; conditions: dose 5-10 µM, time 48.0 hrs
HepG2 [2] = experiment: Upregulation of ACOX1 mRNA expression in FFA-induced human HepG2 cells at 5 to 10 uM pretreated with compound for 24 hrs followed by FFA-induction and measured after 24 hrs by qRT-PCR analysis; assay type: functional, cell-based; conditions: dose 5-10 µM, time 48.0 hrs
HepG2 [3] = experiment: Anti-lipid accumulation activity in human HepG2 cells assessed as reduction in FFA-induced intracellular lipid level pretreated with compound for 48 hrs followed by FFA addition and measured after 48 hrs; assay type: functional, cell-based; conditions: time 96.0 hrs
HepG2 [4] = experiment: Downregulation of FAS mRNA expression in FFA-induced human HepG2 cells at 5 to 10 uM pretreated with compound for 24 hrs followed by FFA-induction and measured after 24 hrs by qRT-PCR analysis; assay type: functional, cell-based; conditions: dose 5-10 µM, time 48.0 hrs
HepG2 [5] = experiment: Anti-lipid accumulation activity in human HepG2 cells assessed as reduction in FFA-induced intracellular lipid level at 10 uM pretreated with compound for 48 hrs followed by FFA addition and measured after 48 hrs; assay type: functional; design: scale not given: the % may be the effect or the level left; conditions: time 96 hrs
HepG2 [6] = experiment: Downregulation of FATP2 mRNA expression in FFA-induced human HepG2 cells at 5 to 10 uM pretreated with compound for 24 hrs followed by FFA-induction and measured after 24 hrs by qRT-PCR analysis; assay type: functional, cell-based; conditions: dose 5-10 µM, time 48.0 hrs
HepG2 [7] = experiment: Downregulation of SCD1 mRNA expression in FFA-induced human HepG2 cells at 5 to 10 uM pretreated with compound for 24 hrs followed by FFA-induction and measured after 24 hrs by qRT-PCR analysis; assay type: functional, cell-based; conditions: dose 5-10 µM, time 48.0 hrs
HepG2 [8] = experiment: Anti-lipid accumulation activity in human HepG2 cells assessed as reduction in FFA-induced number of lipid droplets at 5 to 10 uM pretreated with compound for 24 hrs followed by FFA addition and measured after 48 hrs by oil red O staining based analysis; assay type: functional, cell-based; conditions: dose 5-10 µM, time 72.0 hrs
HepG2 [9] = experiment: Anti-lipid accumulation activity in human HepG2 cells assessed as reduction in FFA-induced intracellular triglyceride content incubated for 24 hrs; assay type: functional, cell-based; conditions: dose 5-10 µM
HepG2 [10] = experiment: Downregulation of FATP5 mRNA expression in FFA-induced human HepG2 cells at 5 to 10 uM pretreated with compound for 24 hrs followed by FFA-induction and measured after 24 hrs by qRT-PCR analysis; assay type: functional, cell-based; conditions: dose 5-10 µM, time 48.0 hrs

| SMILES | Activity (HepG2 [3]) | further results |
| --- | --- | --- |
| C\C(=C/C=C/C=C/[C@H]1[C@@H](C)[C@H](O)[C@@H](O)[C@H]2C[C@@H](C)C[C@@H](C)[C@H]12)C(=O)O | Active | Activity (HepG2 [1]): Active; Activity (HepG2 [2]): Active; Activity (HepG2 [4]): Active; Activity (HepG2 [5]): 50%; Activity (HepG2 [6]): Active; Activity (HepG2 [7]): Active; Activity (HepG2 [8]): Active; Activity (HepG2 [9]): Dose-Dependent Effect; Activity (HepG2 [10]): Active |
| Cc1ccc2c(c1)[C@H]1O[C@]3(O)CCO[C@](C)([C@H]1O)[C@]23C | Active |  |
| C=C(C)CC(=O)O[C@@H]1C[C@H](C)C[C@@H]2CC(=O)[C@@H](C)[C@H]([C@@H]3O[C@H]3[C@@H](O)[C@H]3C=C(C)C(=O)O3)[C@H]21 | Active |  |
| C[C@H]1C[C@H](O)[C@H]2[C@@H](C=C[C@@](C)(O)[C@]2(C)C(=O)CCO)C1 | Active |  |
| C=C(C)CC(=O)O[C@@H]1C[C@H](C)C[C@@H]2CC(=O)[C@@H](C)[C@H]([C@@H]3O[C@H]3[C@H](O)[C@@H]3C=C(C)C(=O)O3)[C@H]21 | Active |  |
| C[C@@H]1C=C2C=C[C@]3(C)OCCC(=O)[C@]3(C)[C@H]2[C@@H](O)C1 | Active |  |
| C[C@@H]1C=C2C=C[C@]3(CO)OCCC(=O)[C@]3(C)[C@H]2[C@@H](O)C1 | Active |  |
| C=C(C)CC(=O)O[C@@H]1C[C@H](C)C[C@@H]2CC(=O)[C@@H](C)[C@H]([C@@H]3O[C@H]3[C@H](O)[C@H]3C=C(C)C(=O)O3)[C@H]21 | Active |  |
| C[C@@H]1C=C2C=CC3OCCC(=O)[C@]3(C)[C@H]2[C@@H](O)[C@H]1O (some centres undefined) | Active |  |
| C/C(=C\[C@H](O)[C@H](O)[C@H](O)[C@H](O)[C@@H]1[C@@H]2[C@@H](CC(=O)[C@@H]1C)C[C@@H](C)C[C@H]2O)C(=O)O | Active |  |
